Experimental data as given in article PMC6268439, “Tebrophen — An Old Polyphenol Drug with Anticancer Potential ^†” (Molecules, 2012).

Key:
Format in all cases: biochemical
Lck = Lck (Homo sapiens, UniProt P06239); assay: ELISA kinase assay with purified kinase expressed in Sf9, poly Glu:Tyr ([…]) substrate
ZAP-70 = molecular target: T1, ZAP-70 (Homo sapiens, UniProt P43403); assay: as above
T1 construct: gene ZAP70
T1 sequence (P43403 1-619): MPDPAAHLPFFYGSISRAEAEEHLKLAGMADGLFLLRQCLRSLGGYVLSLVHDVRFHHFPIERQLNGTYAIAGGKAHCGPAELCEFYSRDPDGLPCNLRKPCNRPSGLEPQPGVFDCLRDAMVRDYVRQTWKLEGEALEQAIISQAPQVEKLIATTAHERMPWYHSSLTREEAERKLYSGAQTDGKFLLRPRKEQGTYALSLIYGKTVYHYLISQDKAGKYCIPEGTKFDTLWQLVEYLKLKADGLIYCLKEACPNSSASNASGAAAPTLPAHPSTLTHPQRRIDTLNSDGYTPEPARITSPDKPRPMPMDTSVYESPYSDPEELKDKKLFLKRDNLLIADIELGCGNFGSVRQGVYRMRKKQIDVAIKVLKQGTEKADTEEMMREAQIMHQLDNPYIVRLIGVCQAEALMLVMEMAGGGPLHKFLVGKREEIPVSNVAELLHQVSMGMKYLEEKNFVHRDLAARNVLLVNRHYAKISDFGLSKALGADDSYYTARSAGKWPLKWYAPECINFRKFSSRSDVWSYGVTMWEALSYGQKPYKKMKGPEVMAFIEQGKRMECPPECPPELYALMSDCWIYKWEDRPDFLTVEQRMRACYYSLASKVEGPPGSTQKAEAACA

[1] = molecular target: T2, Dipeptidyl peptidase IV (DPPIV/CD26) (Homo sapiens, UniProt P27487); assay: enzyme assay with H-Gly-Pro-pNA substrate; […] inhibition at […]
T2 construct: gene DPP4
T2 sequence (P27487 39-766): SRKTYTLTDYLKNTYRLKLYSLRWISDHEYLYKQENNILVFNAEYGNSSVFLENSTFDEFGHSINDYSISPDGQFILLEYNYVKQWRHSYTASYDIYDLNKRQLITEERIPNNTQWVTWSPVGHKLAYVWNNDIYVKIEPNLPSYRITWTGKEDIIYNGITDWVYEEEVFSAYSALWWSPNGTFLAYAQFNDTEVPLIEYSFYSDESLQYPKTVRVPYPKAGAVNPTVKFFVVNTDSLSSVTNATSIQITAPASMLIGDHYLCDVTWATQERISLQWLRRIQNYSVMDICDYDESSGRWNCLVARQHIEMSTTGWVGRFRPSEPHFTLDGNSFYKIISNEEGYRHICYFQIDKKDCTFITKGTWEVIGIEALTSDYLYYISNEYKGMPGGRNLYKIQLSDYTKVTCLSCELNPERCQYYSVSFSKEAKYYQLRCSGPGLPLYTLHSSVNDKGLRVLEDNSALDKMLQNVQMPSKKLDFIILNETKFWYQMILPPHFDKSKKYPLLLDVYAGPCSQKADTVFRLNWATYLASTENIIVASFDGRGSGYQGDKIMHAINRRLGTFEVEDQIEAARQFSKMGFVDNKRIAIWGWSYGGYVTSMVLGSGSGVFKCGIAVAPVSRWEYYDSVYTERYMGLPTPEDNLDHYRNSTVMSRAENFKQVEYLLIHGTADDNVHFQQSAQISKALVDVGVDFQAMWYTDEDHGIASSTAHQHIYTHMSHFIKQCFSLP

Lck, sequence (P06239 2-509): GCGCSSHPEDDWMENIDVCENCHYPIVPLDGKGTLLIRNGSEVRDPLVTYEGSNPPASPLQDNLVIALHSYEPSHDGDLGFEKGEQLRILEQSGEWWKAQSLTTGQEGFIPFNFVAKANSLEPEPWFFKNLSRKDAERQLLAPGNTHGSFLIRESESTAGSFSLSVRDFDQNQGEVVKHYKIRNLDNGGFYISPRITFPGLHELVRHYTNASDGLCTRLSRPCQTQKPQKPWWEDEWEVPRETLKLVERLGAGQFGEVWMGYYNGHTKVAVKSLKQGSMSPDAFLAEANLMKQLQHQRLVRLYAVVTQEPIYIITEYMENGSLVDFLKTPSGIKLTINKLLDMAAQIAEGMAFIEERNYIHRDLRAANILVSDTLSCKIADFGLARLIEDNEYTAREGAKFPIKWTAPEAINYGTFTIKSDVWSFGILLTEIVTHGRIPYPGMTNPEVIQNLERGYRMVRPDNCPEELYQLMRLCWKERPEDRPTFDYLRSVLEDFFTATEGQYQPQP

Oc1c(Br)cc(-c2cc(Br)c(O)c(Br)c2O)c(O)c1Br [tebrophen, 3,3',5,5'-tetrabromobiphenyl-2,2',4,4'-tetrol]
IC50 (Lck): 16 µM
IC50 (ZAP-70): 0.34 µM
inhibition at 80 µM [1]: 41%
